Experiment [1] relates to IL-17A production in anti-CD3/anti-CD28 stimulated peripheral blood mononuclear cells (PBMCs). The experiment in a line: Peripheral blood mononuclear cell (PBMC) IL-17 assay. The following applies: Homo sapiens, 120 h, read-out: mean pIC50, inhibition of IL-17A secretion (ELISA), human PBMCs, anti-CD3/anti-CD28 stimulated, 5 days (converted).
Description: This assay is designed to measure the levels of IL-17A secreted from anti-CD3/anti-CD28 stimulated PBMCs with the aim of measuring RORγ mediated inhibition of IL-17A production.
The assay medium consists of 90% RPMI 1640 (Lonza), 10% heat inactivated fetal bovin serum (FBS, Lonza) and 100 U/mL penicillin/streptomycin solution.
Anti-CD3 antibody (BD Pharmingen) was diluted to 10 μg/ml in PBS (Lonza). 30 μL of 10 μg/ml anti-CD3 solution was added to the inner 60 wells, excluding any negative control wells, of a 96-well cell culture treated U-bottom plate (Greiner). Plates were incubated overnight (16-24 hours) at 37° C. and 5% CO2.
Peripheral blood mononuclear cells were separated from buffy coats (Sanquin) using Ficoll-Paque PREMIUM separation medium (GE Healthcare Life Sciences) according to manufacturer's protocol and re-suspended in assay medium at 37° C.
Test compounds were diluted, starting from a 10 mM dimethylsulfoxide (DMSO) stock solution, to serial dilutions in DMSO at 200× the final test concentration. Subsequently, these solutions were diluted in two dilution steps in assay medium to 10× the final test concentration. The DMSO concentration of the 10× test compound solution was 5%.
Anti-CD28 antibody (BD Pharmingen) was diluted to 20 μg/mL in PBS.
For compound screening, the anti-CD3 coated plates were washed three times with PBS, the wells were subsequently aspirated using vacuum. To each screening well 80 μL of the PBMC suspension, 10 μL of the anti-CD28 solution and 10 μL of the 1 Ox test compound solution was added, resulting in the final test concentration with 0.5% DMSO. All outer wells were filled with assay medium to prevent evaporation. Plates were incubated for 5 days at 37° C. and 5% CO2.
After incubation the plates were spun down at 1500 rpm for 4 minutes and the supernatant was collected. Subsequently, the IL-17A levels in the supernatants was determined using an IL-17 ELISA kit (human IL-17 DuoSet, R&D systems) according to manufacturer's protocol.
The half maximum inhibitory concentration (IC50) values for the test compounds were calculated from the IL-17A signal using GraphPad Prism software (GraphPad Software).
The target in a further experiment is T1, RORγ (Homo sapiens, UniProt P51449).
T1 construct: expressed in transfected cells; host or cells: 293FT cells (Invitrogen), expression vector pFN26A (Promega)
T1 sequence (P51449 269-508 limits assumed): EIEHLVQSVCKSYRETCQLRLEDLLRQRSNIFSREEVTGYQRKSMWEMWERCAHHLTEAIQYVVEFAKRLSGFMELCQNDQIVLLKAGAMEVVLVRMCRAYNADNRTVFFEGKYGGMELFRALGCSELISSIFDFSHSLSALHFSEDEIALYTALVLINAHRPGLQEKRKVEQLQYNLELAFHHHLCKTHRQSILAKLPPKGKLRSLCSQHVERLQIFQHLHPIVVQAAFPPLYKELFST
The experiment in a line: RORγ GAL4 reporter gene assay (luciferase readout, 293FT cells). In kind it is cell-based. As to conditions: inhibition of RORγ (GAL4-RORγ-LBD) luciferase signal in transfected 293FT cells, overnight incubation; read-out: mean pIC50 (converted). How it is done:
Example inhibitors 1-45 were tested for their ability to inhibit RORγ activity in a RORγ GAL4 reporter gene assay.
The RORγ ligand-binding domain (LBD) was fused to the yeast GAL4 DNA binding domain (DBD) and placed under the control of the human cytomegalovirus (CMV) immediate early promoter, using expression vector pFN26A (Promega) and standard recombinant DNA cloning methods.
To monitor the inhibitory effect of compounds on RORγ, a transcriptional reporter construct was used. The pGL4.35 vector (Promega) contains nine copies of the GAL4 Upstream Activator Sequence (UAS). This sequence drives the transcription of the luciferase reporter gene luc2P in response to binding of a fusion protein containing the GAL4 DNA binding domain, as for example expressed by the GAL4-RORγ-LBD and GAL4-VP16 expression vectors described above.
The day after transfection, cells were plated into 96 well plates, test compound was added and the plates were incubated overnight. Subsequently, the firefly luciferase activity was quantified using luciferase detection reagent and luminescence readout.
1500 μL of this reagent mixture was added to 5 μg of GAL4 fusion protein expression vector and 5 μg of the transcriptional reporter construct, and incubated at RT for 20 minutes.
Subsequently, the cells were washed with Phosphate Buffered Saline (PBS) (Lonza), after which the PBS was removed. To dissociate the cells, 1 ml of TrypLE Express (Invitrogen) was added to the flask, followed by incubation at RT until the cells visually started to detach. Cells were collected in 5 mL of assay medium (DMEM culture medium (Lonza), 10% dialyzed FBS (Invitrogen) and Pen/Strep (Lonza)) to achieve a single cell suspension. 10×10^6 cells were spun down and re-suspended in 10 mL of assay medium.
For compound screening, the cells were harvested (as described above) and counted. […] 80 μL of cell suspension (60,000 cells) was plated per well into a white, flat bottom, tissue culture treated, 96 well screening plates (Greiner).
Subsequently, these solutions were diluted to 5× the final test concentration in two 10-fold-dilution steps in assay medium. The final DMSO concentration of the 5× test compound solution was 1%. 20 μL of the 5× test compound solution was added to each test well of the 96 well plate previously plated with 80 μl cell suspension, resulting in the final test concentration with 0.2% DMSO.
For the luciferase readout, the luciferase reagent (Britelite Plus, Perkin Elmer) was brought to RT. To each test well of the screening plates, 100 μL of 2.5-fold diluted Britelite Plus reagent was added, followed by incubation at RT for 10 minutes. The luciferase luminescence signal was measured using a Wallac Victor Microplate Reader (Perkin Elmer).

Each structure is given as a SMILES string.

With `CCS(=O)(=O)c1ccc(CC(=O)Nc2ccc(C(=O)N(c3ccccc3)C(C)(C)C)cc2)cn1` [Example 44, N-tert-butyl-4-{2-[6-(ethanesulfonyl)pyridin-3-yl]acetamido}-N-phenylbenzamide], the IC50 (in experiment [1]; on RORγ) was at most 0.1 µM in each case.

Values taken from patent US10428018B2, “ROR gamma (RORy) modulators” (LEAD PHARMA HOLDING B.V., priority 2015, dated 2019).
